Data from PubChem BioAssay AID1963873 (Molecular Pharmacology Branch, DTP, NCI, 2024).

Test system: 276233-004-R-J1-PDC KRAS spheroids with HUVEC/MSC, viability
Assay: Anticancer human tumor 276233-004-R-J1-PDC patient-derived colon adenocarcinoma cell line growth inhibition [KRAS2]
Conditions: for viability, T/C: stronger effect = lower value; active = viability on the fitted dose curve at most 10% of control; inactive = the rest
Text: Multicellular complex tumor spheroid response to RAS pathway inhibitors in combination with a targeted agents in patient-derived cell lines with oncogenic KRAS variants from multiple cancer types
A high-throughput screen of multi-cell type tumor spheroids was designed to identify active combinations of targeted small molecules and KRAS pathway inhibitors. Complex spheroids include a stromal component modeled by human endothelial cells (HUVEC) and fibroblasts modeled by human mesenchymal stem cells (MSCs). The concentration ranges selected for each drug and investigational agent were based upon clinically achievable concentrations if the clinical Cmax of the agent was known.
Compounds. The drugs and investigational agents: BI-3406 (NSC825286), BAY-293 (NSC824723), batoprotafib (TNO155; NSC825523), sotorasib (AMG 510; NSC818433), MRTX1257 (NSC819558), elimusertib (BAY 1895344; NSC800525), molibresib (GSK525762; NSC774829), temuterkib (LY3214996; NSC803410), venetoclax (NSC766270), alisertib (NSC759677), olaparib (NSC753686), talazoparib (NSC767125), erdafitinib (NSC781556), ipatasertib (NSC767898), cabozantinib (NSC761068), nintedanib (NSC756659), abemaciclib (NSC768073), docetaxel (NSC628503), trametinib (NSC758246), and sapanisertib (NSC764658) were obtained from the National Cancer Institute (NCI) Developmental Therapeutics Program Chemical Repository. The FDA-approved anticancer drug set is available from the Developmental Therapeutics Program. […] The stock solutions were prepared in dimethyl sulfoxide (DMSO, Sigma-Aldrich, St. Louis, MO, cat. D2650) at 800-fold the tested concentration and stored at -70 degrees C prior to their use. All drugs and investigational agents were tested over a range starting from a high concentration at or near the clinical Cmax and decreasing in half-log increments. If the clinical Cmax for an agent had not been determined, the highest concentration tested was 10 microM.
Cell Culture. All cells were maintained in an incubator at 37 degrees C and 5% CO2 with 95% humidity. The PDC lines were cultured according to standard operating procedures established by the NCI PDMR (https://pdmr.cancer.gov/sops/default.htm). Briefly, all PDCs were thawed and cultured in Matrigel-coated flasks prepared with a working solution of 1X Ham's F-12 nutrient mix, without supplementation (Invitrogen, Waltham, MA, cat. 11765054), 100 U/mL penicillin-streptomycin (Invitrogen, cat. 15140122), and 2.5% Matrigel (Corning Inc., Corning, NY, cat. 354248) for the first three passages. All PDCs were cultured in complete DMEM/F-12 media containing advanced DMEM/F-12 (Invitrogen, cat. 12634028), 4.9% defined fetal bovine serum, heat inactivated (HyClone Laboratories Inc., Logan, UT, cat. SH30070.03HI), 389 ng/mL hydrocortisone (Sigma-Aldrich, cat. H4001), 9.7 ng/mL human EGF recombinant protein (Invitrogen, cat. PHG0313), 23.4 microg/mL adenine (Sigma-Aldrich, cat. A2786), 97.3 U/mL penicillin-streptomycin (Invitrogen, cat. 15140122), 1.9 mM L-glutamine (Invitrogen, cat. 25030081), and 9.7 microM Y-27632 dihydrochloride (Tocris Bioscience, Bristol, United Kingdom, cat. 1254). The PDCs were cultured in complete DMEM/F12 media without 9.7 microM Y-27632 dihydrochloride for at least two passages prior to the screen. The established cell line HOP-62 was cultured in RPMI 1640 medium, HEPES (Invitrogen, cat. 22400105) with 10% defined fetal bovine serum (HyClone Laboratories Inc., cat. SH30070.03) and 2 mM L-glutamine (Invitrogen, cat. 25030081). The pooled donor HUVEC were cultured in endothelial cell growth medium 2 (PromoCell, Heidelberg, Germany, cat. C-22011) and the hMSC were cultured in mesenchymal stem cell growth medium 2 (PromoCell, cat. C-28009). For all experiments, HUVEC and hMSC were used at passages </=5, while the malignant cell lines were used at passages </=15. […]

[1] = curve of first compound, second compound 0.0316 µM
[2] = curve of first compound, second compound 0.1 µM
[3] = curve of first compound, second compound 0.316 µM
[4] = curve of first compound, second compound 1 µM
[5] = curve of first compound, second compound 3.16 µM
[6] = second compound 0.0316 µM, first compound 0.0316 µM
[7] = second compound 0.0316 µM, first compound 0.1 µM
[8] = second compound 0.0316 µM, first compound 0.316 µM
[9] = second compound 0.0316 µM, first compound 1 µM
[10] = second compound 0.0316 µM, first compound 3.16 µM
[11] = second compound 0.1 µM, first compound 0.0316 µM
[12] = second compound 0.1 µM, first compound 0.1 µM
[13] = second compound 0.1 µM, first compound 0.316 µM
[14] = second compound 0.1 µM, first compound 1 µM
[15] = second compound 0.1 µM, first compound 3.16 µM
[16] = second compound 0.316 µM, first compound 0.0316 µM
[17] = second compound 0.316 µM, first compound 0.1 µM
[18] = second compound 0.316 µM, first compound 0.316 µM
[19] = second compound 0.316 µM, first compound 1 µM
[20] = second compound 0.316 µM, first compound 3.16 µM
[21] = second compound 1 µM, first compound 0.0316 µM
[22] = second compound 1 µM, first compound 0.1 µM
[23] = second compound 1 µM, first compound 0.316 µM
[24] = second compound 1 µM, first compound 1 µM
[25] = second compound 1 µM, first compound 3.16 µM
[26] = second compound 3.16 µM, first compound 0.0316 µM
[27] = second compound 3.16 µM, first compound 0.1 µM
[28] = second compound 3.16 µM, first compound 0.316 µM
[29] = second compound 3.16 µM, first compound 1 µM
[30] = second compound 3.16 µM, first compound 3.16 µM
[31] = second compound 0.1 µM, first compound 10 µM
[32] = second compound 0.316 µM, first compound 10 µM
[33] = second compound 1 µM, first compound 10 µM
[34] = second compound 3.16 µM, first compound 10 µM
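Also: cells exposed to agents for seven days before viability read.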
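For viability, T/C in this document: 100% = DMSO vehicle control wells and lower values mean fewer viable cells.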

CC(=O)OC12COC1CC(O)C1(C)C(=O)C(O)C3=C(C)C(OC(=O)C(O)C(NC(=O)OC(C)(C)C)c4ccccc4)CC(O)(C(OC(=O)c4ccccc4)C21)C3(C)C (stereo not given) + C=CC(=O)N1CCN(c2nc(OCC3CCCN3C)nc3c2CCN(c2cccc4cccc(C)c24)C3)CC1CC#N
inactive: viability, T/C (second compound 0.0316 µM, first compound 0.01 µM) 82.1% | viability, T/C [6] 90.6% | viability, T/C [7] 103% | viability, T/C [8] 96% | viability, T/C [9] 112% | viability, T/C [10] 94.8% | viability, T/C (second compound 0.1 µM, first compound 0.01 µM) 96.7% | viability, T/C [11] 96.3% | viability, T/C [12] 76.4% | viability, T/C [13] 86.8% | viability, T/C [14] 91.5% | viability, T/C [15] 95.5% | viability, T/C (second compound 0.316 µM, first compound 0.01 µM) 97.8% | viability, T/C [16] 83.4% | viability, T/C [17] 73.6% | viability, T/C [18] 72.2% | viability, T/C [19] 99% | viability, T/C [20] 107% | viability, T/C (second compound 1 µM, first compound 0.01 µM) 84.4% | viability, T/C [21] 79.3% | viability, T/C [22] 75.8% | viability, T/C [23] 71.3% | viability, T/C [24] 93.3% | viability, T/C [25] 98.2% | viability, T/C (second compound 3.16 µM, first compound 0.01 µM) 103% | viability, T/C [26] 87.8% | viability, T/C [27] 88.4% | viability, T/C [28] 87.2% | viability, T/C [29] 95.7% | viability, T/C [30] 112%
> 3.16 µM: IC50 [1] | IC50 [2] | IC50 [3] | IC50 [4] | IC50 [5]

CC(C)NCC(C(=O)N1CCN(c2ncnc3c2C(C)CC3O)CC1)c1ccc(Cl)cc1 (stereo not given)
> 10 µM: IC50 (curve of compound)
inactive: viability, T/C (compound 0.0316 µM) 91% [middle of 5 runs] | viability, T/C (compound 0.1 µM) 91.5% [middle of 5 runs] | viability, T/C (compound 0.316 µM) 79.8% [middle of 5 runs] | viability, T/C (compound 10 µM) 73.1% [middle of 5 runs]

CCNC(=O)CC1N=C(c2ccc(Cl)cc2)c2cc(OC)ccc2-n2c(C)nnc21 (stereo not given) + C=CC(=O)N1CCN(c2nc(OCC3CCCN3C)nc3c2CCN(c2cccc4cccc(C)c24)C3)CC1CC#N
> 10 µM: IC50 [1] | IC50 [2] | IC50 [3] | IC50 [4]
inactive: viability, T/C [6] 94.8% | viability, T/C [7] 80.9% | viability, T/C [8] 63.6% | viability, T/C [9] 57.1% | viability, T/C [10] 68.6% | viability, T/C (second compound 0.0316 µM, first compound 10 µM) 62% | viability, T/C [11] 95.1% | viability, T/C [12] 81.2% | viability, T/C [13] 85.6% | viability, T/C [14] 60.2% | viability, T/C [15] 59.5% | viability, T/C [31] 62.3% | viability, T/C [16] 94.8% | viability, T/C [17] 83.1% | viability, T/C [18] 83.3% | viability, T/C [19] 76.2% | viability, T/C [20] 65.4% | viability, T/C [32] 63.6% | viability, T/C [21] 80.5% | viability, T/C [22] 66.1% | viability, T/C [23] 56.2% | viability, T/C [24] 57.6% | viability, T/C [25] 56.6% | viability, T/C [33] 61.2% | viability, T/C [26] 60.3% | viability, T/C [27] 59.8% | viability, T/C [28] 42% | viability, T/C [29] 33.7% | viability, T/C [30] 36.4% | viability, T/C [34] 38.7%
0.189 µM: IC50 [5]

COc1cc(Nc2ncc3c(n2)-c2ccc(Cl)cc2C(c2c(F)cccc2OC)=NC3)ccc1C(=O)O + C=CC(=O)N1CCN(c2nc(=O)n(-c3c(C)ccnc3C(C)C)c3nc(-c4c(O)cccc4F)c(F)cc23)C(C)C1
inactive: viability, T/C [11] 132% | viability, T/C [12] 118% | viability, T/C [13] 117% | viability, T/C [14] 104% | viability, T/C [15] 116% | viability, T/C [31] 88.3% | viability, T/C [16] 112% | viability, T/C [17] 110% | viability, T/C [18] 117% | viability, T/C [19] 111% | viability, T/C [20] 99% | viability, T/C [32] 97% | viability, T/C [21] 102% | viability, T/C [22] 118% | viability, T/C [23] 108% | viability, T/C [24] 115% | viability, T/C [25] 110% | viability, T/C [33] 96.5% | viability, T/C [26] 139% | viability, T/C [27] 125% | viability, T/C [28] 110% | viability, T/C [29] 105% | viability, T/C [30] 96.3% | viability, T/C [34] 89.1% | viability, T/C (second compound 10 µM, first compound 0.0316 µM) 88.3% | viability, T/C (second compound 10 µM, first compound 0.1 µM) 107% | viability, T/C (second compound 10 µM, first compound 0.316 µM) 87.4% | viability, T/C (second compound 10 µM, first compound 1 µM) 91.6% | viability, T/C (second compound 10 µM, first compound 3.16 µM) 79.3% | viability, T/C (second compound 10 µM, first compound 10 µM) 86.5%
> 10 µM: IC50 [2] | IC50 [3] | IC50 [4] | IC50 [5] | IC50 (curve of first compound, second compound 10 µM)

COC(=O)c1ccc2c(C(=Nc3ccc(N(C)C(=O)CN4CCN(C)CC4)cc3)c3ccccc3)c(O)[nH]c2c1
> 10 µM: IC50 (curve of compound)
inactive: viability, T/C (compound 0.0316 µM) 93.3% [middle of 5 runs] | viability, T/C (compound 0.1 µM) 90.3% [middle of 5 runs] | viability, T/C (compound 0.316 µM) 81.9% [middle of 5 runs] | viability, T/C (compound 1 µM) 86.2% [middle of 5 runs]
